Test results published in patent US9919031B2, “Use of the insulin-like-growth factor 1 splice variant MGF for the prevention of myocardial damage” (THE BOARD OF TRUSTEES OF UNIVERSITY OF ILLINOIS, priority 2002, dated 2018).

Legend:
cardiac myocytes = assay: Induction of endogenous MGF expression by PMA, real time RT-PCR; assay type: cell-based
Protocol: Primary cultures of cardiac myocytes were cultured in serum free media for 24 hours prior to the addition of PMA (200 nM). After 30 min total RNA was extracted and MGF gene expression was assayed using real time RT-PCR. […] B. A repeat of the initial experiment but in the third group PMA was added to the cultures without changing the media. MGF expression is increased to a great extent than when PMA is added with fresh media.
In order to investigate which signal appear to modulate MGF expression in cardiac myocytes, several drugs were applied to cardiomyocyte cultures. These in turn activate signal transduction molecules either directly or indirectly through receptor coupled molecules. One such drug is phorbol myristate acetate (PMA), a phorbol ester that specifically activates the Protein Kinase C family of serine/threonine signaling kinases. […] When the amount of MGF is compared to the amount of liver-type IGF in the control conditions, there is substantially less in the cardiac myocytes. […] When the same experiment was repeated but the PMA was added to myocyte cultures in which the media had not been changed for 24 hours prior to the addition of the PMA, the increase in MGF expression is even greater than when PMA is added along with fresh media (FIG. 5B).

[1] = animal models of cardiomyopathy and clinical trials; cited from earlier work
[2] = rats, recombinant L.IGF-I administered after ischemia; cited from earlier work

For CCCCCCCCCCCCCC(=O)O[C@@H]1[C@@H](C)[C@@]2(O)[C@@H](C=C(CO)C[C@]3(O)C(=O)C(C)=C[C@@H]23)[C@@H]2C(C)(C)[C@]12OC(C)=O [PMA, phorbol myristate acetate], the “level of IGF expression” value (cardiac myocytes; PMA 200 nM, 30 min) was “does not change”, the “expression of the endogenous MGF gene” value (cardiac myocytes; PMA 200 nM, 30 min, serum free media 24 hours, added with fresh media) was “significant increase” and the “increase in MGF expression, media not changed” value (cardiac myocytes; PMA added to cultures whose media had not been changed for 24 hours, versus PMA with fresh media) was “even greater”.

In the case of “growth hormone: growth hormone; induces expression of systemic insulin-like growth factors via the liver”, the cardiac function [1] is given as “Significant improvement”.

For “recombinant L.IGF-I: recombinant systemic, liver-type IGF-I”, the “cell death following transient myocardial ischemia” value [2] is listed as “reduced cell death”.
